Assay results as given in patent US20120225417A1, “Methods, Compositions and Kits for the Evaluation and Preservation of Sperm” (I'Alliance Boviteq Inc., priority 2011, published 2012).

Columns and labels:
Type in all cases: biochemical
[1] = system: 3′-5′ cAMP-PDE activity in bovine seminal plasma; assay: 3′-5′ cAMP-PDE assay with family-specific PDE inhibitors in bovine seminal plasma; settings: thawed bovine seminal plasma, papaverine 400 nM (FIG. 8)
Description: Fresh ejaculated bovine sperm, at known concentrations, was transported for three hours at 18° C. Upon arrival specimens were centrifuged at 400×g during 10 minutes at room temperature to gently pull down spermatozoa. Supernatant was transferred and centrifuged again at 6 000×g at 4° C. during 20 minutes to pull down any remaining spermatozoa. Supernatant was then transferred and centrifuged at 6 000×g at 4° C. during 20 minutes to remove any remaining debris. Seminal plasma (SP) samples were kept on ice until used for PDE assay and stored at −80° C. for further characterization.
The cAMP enzymatic assay (PDE assay) was conducted as previously described (Sasseville, M. et al., (2006). BMC developmental biology 6, 47). Samples were directly subjected to PDE assay. 3′-5′ cAMP-PDE activity was assessed at 34° C. in 200 μL final volume using 1 μM cAMP as substrate (Thompson, W. J. et al., (1979). Adv Cyclic Nucleotide Res 10, 69-92) with minor modifications. […] Knowing the exact concentrations of spermatozoa in each SP sample, total 3′-5′ cAMP-PDE activity was reported as the quantity of cAMP (fMol) hydrolysed per minute per the number of spermatozoa (fMol/min/10^6 spz). […] To determine which PDE family contributes to total 3′-5′ cAMP-PDE activity, the activity measured in the presence of the respective inhibitors was subtracted from the total. […]

[2] = system: 3′-5′ cAMP-PDE activity in human seminal plasma; assay: 3′-5′ cAMP-PDE assay with family-specific PDE inhibitors in human seminal plasma; settings: fresh human seminal plasma; Rolipram 10 μM, Papaverine 400 nM (FIG. 19)
Description: A certain amount of complete ejaculate was kept to isolate spermatozoa from seminal plasma. This portion was centrifuged at 400×g during 10 minutes at room temperature to gently pull down spermatozoa. Supernatant was transferred and centrifuged again at 6 000×g at 4° C. during 20 minutes to pull down any remaining spermatozoa. Supernatant was then transferred and centrifuged at 6 000×g at 4° C. during 20 minutes to remove any remaining debris. SP samples were kept on ice until used for PDE assay and stored at -80° C. for further characterization. The cAMP enzymatic assay (PDE assay) was conducted as previously described ([…]. et al., (2006). BMC developmental biology 6, 47). […] J. et al., (1979). Adv Cyclic Nucleotide Res 10, 69-92) with minor modifications. […] Measurements were also performed in the presence of PDE inhibitors: […] Cilostamide and Rolipram were purchased from Biomol. […] Each PDE assay was performed in triplicate for each experiment and each experiment was repeated at least three times. As described ([…]. et al., (2009). […] IBMX-sensitive PDE5 and PDE6 and IBMX-insensitive PDE9 activities are absent from these groups because cGMP is the specific substrate and then are not detected in the cAMP-PDE assay. […] J Dairy Sci 92, 3757-3765; […]., et al. (2007). Endocrinology 148, 1858-1867; Siuciak, J. A. et al., (2006). Neuropharmacology 51, 386-396).

[3] = system: 3′-5′ cAMP-PDE activity in bovine testis, caput, cauda and seminal vesicles homogenates; assay: 3′-5′ cAMP-PDE assay in bovine testis, caput, cauda and seminal vesicles homogenates; settings: Rol 10 μM, Papa 400 nM (FIG. 3)
Description: After thoroughly vortex-agitating for about one minute, samples were centrifuged at 10 000×g for 4 minutes at room temperature. Supernatant fluid was collected and diluted in different volumes of hypotonic buffer depending on the tissue. Testis, caput and cauda homogenates were diluted in 1 mL of hypotonic buffer while seminal vesicle homogenates were diluted in 2 mL of hypotonic buffer. Homogenates were kept on ice until subjected to PDE assay. The cAMP enzymatic assay (PDE assay) was conducted as previously described ([…]. et al., (2006). BMC developmental biology 6, 47). […] J. et al., (1979). Adv Cyclic Nucleotide Res 10, 69-92) with minor modifications. […] Measurements were also performed in the presence of PDE inhibitors: […] Cilostamide and Rolipram were purchased from Biomol. […] Each PDE assay was performed in triplicate for each experiment and each experiment was repeated at least three times. As described ([…]. et al., (2009). […] IBMX-sensitive PDE5 and PDE6 and IBMX-insensitive PDE9 activities are absent from these groups because cGMP is the specific substrate and then are not detected in the cAMP-PDE assay. […] J Dairy Sci 92, 3757-3765; […]., et al. (2007). Endocrinology 148, 1858-1867; Siuciak, J. A. et al., (2006). Neuropharmacology 51, 386-396).

With `COc1ccc(Cc2nccc3cc(OC)c(OC)cc23)cc1OC` [Papaverine] as the compound, how does the “Share of PDE activity in bovine seminal plasma that is papaverine-sensitive” value [1] read?
The value was “more than 50%”.

What about the “Inhibitor-sensitive PDE activity in human seminal plasma (in words)” value [2] of the same compound?
Its value is “low percentage”.

What about the “Inhibitor-sensitive PDE activity in bovine male reproductive tissues (in words)” value [3] of the same compound?
Its value is “low percentage”.
